# In patent US20100331348A1, “TROPANE DERIVATIVES USEFUL AS PESTICIDES” (SYNGENTA CROP PROTECTION, INC., priority 2007, published 2010):
# Like-named read-outs stand apart in the source and are kept apart here.
# Key:
# Pyricularia oryzae = assay: whole plant or invertebrate; assay type: in vivo; conditions: foliar, 96 h
# Aedes aegypti = Aedes aegypti (Yellow fever mosquito) larvae test; assay type: in vivo; conditions: 48 h
# Tetranychus urticae = conditions: foliar, 192 h, read-out: control of Tetranychus urticae
# [1] = test system: Puccinia recondita f.sp. tritici; assay: Puccinia recondita f.sp. tritici (wheat brown rust) leaf disk assay; assay type: in vivo; conditions: foliar, 216 h, preventive, nine days after inoculation, read-out: control of fungal infection, Puccinia recondita f.sp. tritici
# Plasmopara viticola = Plasmopara viticola (downy mildew of grapevine) leaf disk assay; assay type: in vivo; conditions: foliar, 168 h, preventive, seven days after inoculation, read-out: control of fungal infection, Plasmopara viticola
# Plutella xylostella = Plutella xylostella (Diamond back moth) artificial diet test; conditions: 120 h, read-out: control of Plutella xylostella
# [2] = test system: Erysiphe graminis f.sp. tritici; assay: Erysiphe graminis f.sp. tritici (wheat powdery mildew) leaf disk assay; assay type: in vivo; conditions: Blumeria graminis, foliar, 96 h, preventive, four days after inoculation, read-out: control of fungal infection, Erysiphe graminis fsp. tritici
# Heliothis virescens = Heliothis virescens (Tobacco budworm) egg test on artificial diet; conditions: 96 h, read-out: control of Heliothis virescens
# Phytophthora infestans = assay: whole plant or invertebrate; assay type: in vivo; conditions: foliar, 96 h, read-out: control of fungal infection, Phytophthora infestans
# Pythium ultimum = Pythium ultimum (Damping off) growth inhibition in potato dextrose broth; assay type: cell-based; conditions: Globisporangium ultimum, 48 hours, read-out: control of fungal infection, Pythium ultimum
# [3] = read-out: control of fungal infection, Pyricularia oryzae (at least 80% list)
# [4] = read-out: control of fungal infection, Pyricularia oryzae (at least 60% list)
Structure (SMILES),pest or weed control at 200 ppm (Pyricularia oryzae; [3]),pest or weed control at 2 ppm (Aedes aegypti),pest or weed control at 200 ppm (Tetranychus urticae),pest or weed control at 200 ppm [1],pest or weed control at 200 ppm (Plasmopara viticola),pest or weed control at 200 ppm (Plutella xylostella),pest or weed control at 200 ppm [2],pest or weed control at 200 ppm (Heliothis virescens),pest or weed control at 200 ppm (Pyricularia oryzae; [4]),pest or weed control at 200 ppm (Phytophthora infestans),inhibition of growth at 200 ppm (Pythium ultimum)
CCCC1COC2(CC3CCC(C2)N3c2ncnc3sccc23)O1 (stereo not drawn) [Example 6.10],≥ 80%,≥ 80%,≥ 80%,≥ 80%,≥ 80%,≥ 80%,≥ 80%,–,–,–,–
Fc1cc(Cl)cnc1OC1C[C@H]2CC[C@@H](C1)N2c1ncnc2sccc12 (stereo partly drawn) [Example 1.72],≥ 80%,–,–,≥ 80%,–,–,≥ 80%,≥ 80%,≥ 60%,–,–
CCc1ncnc(N2C3CCC2CC(=NOCc2cc(F)c(F)cc2F)C3)c1Cl [Example 5.87],–,≥ 80%,–,≥ 80%,–,≥ 80%,≥ 80%,≥ 80%,–,–,–
Fc1ccc(F)c(CON=C2CC3CCC(C2)N3c2ncnc3sccc23)c1F [Example 5.228],–,≥ 80%,≥ 80%,≥ 80%,≥ 80%,≥ 80%,≥ 80%,–,≥ 60%,≥ 80%,–
CCc1ncnc(N2C3CCC2CC(=CCOc2ccc(Cl)c(OC)c2)C3)c1Cl [Example 3.13],≥ 80%,≥ 80%,–,≥ 80%,–,–,–,≥ 80%,–,–,–
CCC(=O)c1cc(F)c(OC2C[C@H]3CC[C@@H](C2)N3c2ncnc3sccc23)c(F)c1 (stereo partly drawn) [Example 2.66],–,≥ 80%,≥ 80%,–,≥ 80%,≥ 80%,≥ 80%,–,–,≥ 80%,–
N#Cc1ccc(CON=C2CC3CCC(C2)N3c2ncnc3sccc23)cc1 [Example 5.163],≥ 80%,≥ 80%,–,≥ 80%,–,≥ 80%,≥ 80%,≥ 80%,–,≥ 80%,–
Cn1nc(C(F)(F)F)cc1C(=O)N1[C@@H]2CC[C@H]1CC(Oc1ccc(C(F)(F)F)cn1)C2 (stereo partly drawn) [Example 2.222],–,–,–,–,–,–,≥ 80%,≥ 80%,–,–,–
COCc1ncnc(N2[C@@H]3CC[C@H]2CC(Oc2ccc(C(F)(F)F)cn2)C3)c1OC (stereo partly drawn) [Example 2.167],–,–,–,–,–,–,≥ 80%,≥ 80%,–,–,–
CCc1ncnc(N2C3CCC2CC(=NOCc2csc(C)n2)C3)c1Cl [Example 5.98],–,≥ 80%,–,≥ 80%,–,–,≥ 80%,–,–,–,≥ 60%
C#CCN(CC#C)C1C[C@H]2CC[C@@H](C1)N2c1ncnc(CC)c1Cl (stereo partly drawn) [Example 4.19],–,–,–,≥ 80%,–,–,–,≥ 80%,–,–,–
Cc1ccc(OCC=C2CC3CCC(C2)N3c2ncnc3sccc23)cc1 [Example 3.30],≥ 80%,≥ 80%,–,≥ 80%,≥ 80%,–,–,≥ 80%,–,≥ 80%,–
CCc1ncnc(N2C3CCC2CC(Cc2ccc(OC)cc2)C3)c1Cl (stereo not drawn) [Example 7.32],–,≥ 80%,≥ 80%,≥ 80%,–,≥ 80%,–,≥ 80%,–,–,–
CCc1ncnc(N2C3CCC2CC(=NOCc2cc(F)ccc2F)C3)c1Cl [Example 5.73],–,≥ 80%,–,≥ 80%,–,≥ 80%,≥ 80%,≥ 80%,≥ 60%,–,–
CCc1ncnc(N2C3CCC2CC(=NOCc2ccc(Br)cc2F)C3)c1Cl [Example 5.85],–,–,≥ 80%,–,–,≥ 80%,–,≥ 80%,–,–,–
CCc1ncnc(N2C3CCC2CC(Cc2ccc(C)cc2)C3)c1Cl (stereo not drawn) [Example 7.26],–,≥ 80%,–,–,–,≥ 80%,–,≥ 80%,–,–,–

Structure (SMILES),pest or weed control at 200 ppm (Pyricularia oryzae; [3]),pest or weed control at 2 ppm (Aedes aegypti),pest or weed control at 200 ppm (Tetranychus urticae),pest or weed control at 200 ppm [1],pest or weed control at 200 ppm (Plasmopara viticola),pest or weed control at 200 ppm (Plutella xylostella),pest or weed control at 200 ppm [2],pest or weed control at 200 ppm (Heliothis virescens),pest or weed control at 200 ppm (Pyricularia oryzae; [4]),pest or weed control at 200 ppm (Phytophthora infestans),inhibition of growth at 200 ppm (Pythium ultimum)
FC(F)(F)c1ccc(OC2C[C@H]3CC[C@@H](C2)N3c2ncnc3ccsc23)nc1 (stereo partly drawn) [Example 2.77],–,–,–,≥ 80%,–,–,≥ 80%,–,≥ 60%,–,≥ 60%
FC(F)(F)c1ccc(OC2C[C@H]3CC[C@@H](C2)N3c2ncnc3ccccc23)nc1 (stereo partly drawn) [Example 2.85],–,≥ 80%,≥ 80%,–,–,–,≥ 80%,≥ 80%,≥ 60%,–,–
COc1ccc(CC2CC3CCC(C2)N3c2ncnc3sccc23)cc1 (stereo not drawn) [Example 7.11],–,≥ 80%,≥ 80%,≥ 80%,≥ 80%,–,–,≥ 80%,≥ 60%,–,–
CCc1ccc(CON=C2CC3CCC(C2)N3c2ncnc3sccc23)cc1 [Example 5.151],≥ 80%,≥ 80%,≥ 80%,≥ 80%,≥ 80%,–,≥ 80%,–,–,≥ 80%,–
CCc1ncnc(N2C3CCC2CC(=NOCc2ccc(OC)cc2)C3)c1Cl [Example 5.16],–,≥ 80%,≥ 80%,≥ 80%,≥ 80%,≥ 80%,≥ 80%,≥ 80%,–,–,–
CCc1ncnc(N2C3CCC2CC(=NOCC2CC2)C3)c1Cl [Example 5.3],–,≥ 80%,–,≥ 80%,–,–,≥ 80%,–,–,–,≥ 60%
Cc1ccc(CON=C2CC3CCC(C2)N3c2ncnc3sccc23)cc1 [Example 5.145],–,≥ 80%,≥ 80%,≥ 80%,≥ 80%,≥ 80%,≥ 80%,≥ 80%,≥ 60%,≥ 80%,–
CCc1ncnc(N2C3CCC2CC(=NOCc2ccc(C#N)cc2)C3)c1Cl [Example 5.14],≥ 80%,–,–,≥ 80%,–,≥ 80%,≥ 80%,≥ 80%,–,–,–
CCc1ncnc(N2C3CCC2CC(=NOCc2noc(C)n2)C3)c1Cl [Example 5.92],–,≥ 80%,≥ 80%,≥ 80%,–,≥ 80%,≥ 80%,≥ 80%,–,–,–
CCc1ncnc(N2[C@@H]3CC[C@H]2CC(Oc2ccc(C)nc2)C3)c1Cl (stereo partly drawn) [Example 2.151],–,≥ 80%,–,–,–,–,≥ 80%,–,–,–,≥ 60%
FC(F)(F)c1ccc(CON=C2CC3CCC(C2)N3c2ncnc3sccc23)cc1 [Example 5.160],≥ 80%,≥ 80%,≥ 80%,≥ 80%,≥ 80%,≥ 80%,≥ 80%,–,–,≥ 80%,–
Cc1ccc(CC2CC3CCC(C2)N3c2ncnc3sccc23)cc1 (stereo not drawn) [Example 7.8],≥ 80%,≥ 80%,–,≥ 80%,≥ 80%,≥ 80%,–,≥ 80%,≥ 60%,–,–
CCC(=O)c1ccc(OC2C[C@H]3CC[C@@H](C2)N3c2ncnc(CC)c2Cl)cc1 (stereo partly drawn) [Example 2.166],–,≥ 80%,≥ 80%,≥ 80%,–,–,–,≥ 80%,–,≥ 80%,–
CCc1ncnc(N2C3CCC2CC(=CCOc2cccc(F)c2)C3)c1Cl [Example 3.12],≥ 80%,≥ 80%,–,≥ 80%,–,≥ 80%,–,≥ 80%,–,–,–
CCCCC1COC2(CC3CCC(C2)N3c2ncnc3sccc23)O1 (stereo not drawn) [Example 6.3],–,≥ 80%,–,–,≥ 80%,≥ 80%,≥ 80%,≥ 80%,–,≥ 80%,–
CCc1ncnc(N2C3CCC2CC(=NOCc2ccccc2)C3)c1Cl [Example 5.5],–,≥ 80%,–,≥ 80%,–,≥ 80%,≥ 80%,≥ 80%,–,≥ 80%,–
